“Also recorded” adds a separate entry of the source. Where two headings read alike, the source gives them in different places.
Columns and labels:
[1] = test system: panel of human tumor cell lines; experiment: XTT screening on a panel of tumor cell lines; assay type: cell-based; conditions: Homo sapiens; read-out: IC50 values for several cancer cell lines
Procedure: (§1) Fifty microliters of sodium 3′-[1-phenylaminocarbonyl)-3,4-tetrazolium]-bis(4-methoxy-6-nitro) benzene sulfonic acid hydrate (XTT) reagent was added to each well. The assay is based on the cleavage of the yellow tetrazolium salt XTT to form an orange formazan dye by metabolically active cells. This bio-reduction occurs in viable cells only and is related to NAD(P)H production through glycolysis. Therefore, the amount of formazan dye measured at 490 nm directly correlated with the number of metabolically active cells reflecting cell proliferation and viability. Each assay was performed in quadruplicate.

[2] = test system: cisplatin-resistant CAL27 cells (CAL27R); experiment: XTT cell viability assay, cisplatin-resistant CAL27 cells; assay type: cell-based, human; conditions: 1 to 10 µM 48 h, 2.5 µM 24 to 96 h
Procedure: as §1

[3] = test system: ERK/MAP Kinase and PI3K/AKT signaling pathways; experiment: p-ERK and p-AKT immunoblotting in RCC and HNSCC cells; assay type: cell-based, human; conditions: naive and resistant RCC and HNSCC cells, 2.5 µM, 1 h to 48 h
Procedure: (§2) Cells were lysed in buffer containing 3% SDS, 10% glycerol and 0.825 mM Na2HPO4. 30 to 50 μg of proteins separated on 10% SDS-PAGE, transferred onto a PVDF membrane and then exposed to the appropriate antibodies. Proteins were visualized with the ECL system using horseradish peroxidase-conjugated anti-rabbit or anti-mouse antibodies.

[4] = test system: uveal melanoma cells (Mel202); experiment: Cell viability, uveal melanoma cells; assay type: cell-based
Procedure: as §1
To determine the selectivity of the activity of the substances tested, the selectivity index (SI) was calculated according to the equation previously described where SI = IC50 of a compound in a normal cell line/IC50 of the same compound in cancer cell line. The IC50 is the concentration required to kill 50% of the cell population.

[5] = In vitro (in cellulo) stability assay; assay type: in vitro ADME, human; conditions: 786-O cells, 2.5 µM, 24 h at room temperature, UPLCMS/MS
Procedure: The in vitro stability was determined as followed: 786-O cells were treated with 2.5 µM of compound C29 for the defined time, then lysed with methanol. The lysates were filtered and analyzed by UPLCMS/MS.

[6] = test system: OCI-AML3; experiment: XTT cell viability assay, OCI-AML3 AML cells; assay type: cell-based, human; conditions: Homo sapiens, OCI-AML-3, 48 h, SD 10%, mean of three experiments, read-out: IC50 L3 (AML)
Procedure: as §1

[7] = Hematological, renal and hepatic toxicity; assay type: in vivo
[8] = test system: sunitinib-resistant 786-O cells (786R); experiment: XTT cell viability assay, sunitinib-resistant 786-O cells; assay type: cell-based, human; conditions: 1 to 10 µM 48 h, 2.5 µM 24 to 96 h
Procedure: as §1

[9] = test system: 786-O; experiment: XTT cell viability assay, 786-O RCC cells; assay type: cell-based, human; conditions: for IC50: Homo sapiens, 786-0
Procedure: as §1

[10] = biological target: T1, CXCR2 (Homo sapiens, UniProt P25025); experiment: Membrane-associated CXCR2 level in HuVEC by flow cytometry; assay type: cell-based; conditions: CXCL8 25 ng/ml 1 h, C29 2.5 µmol/L
T1 construct: CXCR1/2 are expressed on endothelial cells and participate in ELR^+CXCL-mediated angiogenesis; endogenous in cells; host or cells: HuVEC
Procedure: CXCR2 measurement: After stimulation, cells were washed with PBS and stained with the CXCR2-PE antibody (Miltenyi) for 30 min at room temperature. Fluorescence was measured using the FL2 (PE) channels of a fluorescence-activated cell sorter apparatus (Calibur cytometer).

[11] = test system: Molm13; experiment: XTT cell viability assay, Molm13 AML cells; assay type: cell-based, human; conditions: Homo sapiens, MOLM-13, 48 h, SD 10%, mean of three experiments
Procedure: as §1

[12] = test system: MDA-MD-231; experiment: XTT cell viability assay, breast cancer cells; assay type: cell-based, human; conditions: Homo sapiens, 48 h, SD 10%, mean of three experiments
Procedure: as §1

[13] = test system: CAL27; experiment: XTT cell viability assay, CAL27 HNSCC cells; assay type: cell-based, human; conditions: for IC50: Homo sapiens, CAL-27
Procedure: as §1

[14] = test system: SKM1; experiment: XTT cell viability assay, SKM1 MDS cells; assay type: cell-based, human; conditions: Homo sapiens, SKM-1, 48 h, SD 10%, mean of three experiments, read-out: IC50 SK (MDS)
Procedure: as §1

[15] = test system: HuVEC; experiment: XTT cell viability assay, HuVEC; assay type: cell-based, human; conditions: 48 h, CXCL5 or CXCL7 100 ng/ml
Procedure: as §1

[16] = biological target: T2, CXCR1 (Homo sapiens, UniProt P25024); experiment: Membrane-associated CXCR1 level in HuVEC by flow cytometry; assay type: cell-based; conditions: CXCL7 25 ng/ml 1 h, C29 2.5 µmol/L
T2 construct: CXCR1/2 are expressed on endothelial cells and participate in ELR^+CXCL-mediated angiogenesis; endogenous in cells; host or cells: HuVEC

[17] = test system: ERK/MAP Kinase signaling pathway; experiment: p-ERK immunoblotting in HuVEC; assay type: cell-based, human; conditions: 5 µM C29 1 h, CXCL5 50 ng/ml 10 min
Procedure: as §2

[18] = test system: RCC4; experiment: XTT cell viability assay, RCC4 RCC cells; assay type: cell-based, human; conditions: Homo sapiens, RCC4, 48 h, SD 10%, mean of three experiments, read-out: IC50 R4 (Kidney RCC)
Procedure: as §1

[19] = test system: 786-O cells; experiment: Ectopic model of RCC (786-O xenograft); assay type: in vivo, nude (nu/nu) female mice; conditions: C29 100 µg i.p. three per week; danirixin 200 µg three times a week; sunitinib 50 mg/kg oral gavage five times a week
Procedure: These studies were carried out in strict accordance with the recommendations in the Guide for the Care and Use of Laboratory Animals. Our experiments were approved by the ''Comité National Institutionnel d'Ethique pour l'Animal de Laboratoire'' (reference: PEA-255 and PEA-277). Cells were injected subcutaneously into the flank of 5-week-old nude (nu/nu) female mice (Janvier). When the tumor reached 100 mm^3, mice were treated. The tumor volume was determined with a caliper (v = L*l2*0.5).
2- Seven million 786-O cells were injected subcutaneously.

[20] = test system: K562; experiment: XTT cell viability assay, K562 CML cells; assay type: cell-based, human; conditions: Homo sapiens, K562, 48 h, SD 10%, mean of three experiments
Procedure: as §1

[21] = C29 100mg/kg oral gavage, three weeks, ns vs CT
[22] = XTT, 1 to 10 µM 48 h, 2.5 µM 24 to 96 h

T1 sequence (P25025 whole entry): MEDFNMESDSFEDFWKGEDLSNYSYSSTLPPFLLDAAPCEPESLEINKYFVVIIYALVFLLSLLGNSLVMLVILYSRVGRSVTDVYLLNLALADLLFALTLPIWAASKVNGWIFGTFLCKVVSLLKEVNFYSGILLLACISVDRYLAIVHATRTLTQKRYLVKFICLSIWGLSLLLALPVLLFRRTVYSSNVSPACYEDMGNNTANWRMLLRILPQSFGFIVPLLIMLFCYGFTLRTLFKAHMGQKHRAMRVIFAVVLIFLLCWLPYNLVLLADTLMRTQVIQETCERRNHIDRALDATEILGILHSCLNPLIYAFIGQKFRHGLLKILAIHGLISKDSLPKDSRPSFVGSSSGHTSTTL
T2 sequence (P25024 whole entry): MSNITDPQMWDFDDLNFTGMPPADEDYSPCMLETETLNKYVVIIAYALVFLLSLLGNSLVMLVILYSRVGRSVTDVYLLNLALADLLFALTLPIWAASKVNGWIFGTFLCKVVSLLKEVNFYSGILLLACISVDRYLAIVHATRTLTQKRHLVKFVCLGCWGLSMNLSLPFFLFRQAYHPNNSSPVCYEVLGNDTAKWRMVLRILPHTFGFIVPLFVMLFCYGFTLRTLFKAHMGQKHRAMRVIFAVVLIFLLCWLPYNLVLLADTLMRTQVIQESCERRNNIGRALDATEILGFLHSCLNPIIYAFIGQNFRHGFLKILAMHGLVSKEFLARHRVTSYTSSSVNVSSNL

- IC50 [1]: < 20000 nM
- IC50 ([4]; Mel202, CXCR1-/CXCR2-): 10000 nM
- IC50 [6]: 4000 nM
- IC50 ([9]; CXCR1+/CXCR2+, read-out: IC50 786-O): 2000 nM
- IC50 ([9]; XTT assay, 48 h, SD 10%, mean of three experiments, read-out: IC50 786 (Kidney RCC)): 2000 nM
- CXCR2 levels at the plasma membrane [10]: increased
- IC50 [11]: 7000 nM
- IC50 [12]: 2500 nM
- IC50 [14]: 5000 nM
- CXCR1 levels at the plasma membrane [16]: increased
- basal and CXCL5-dependent ERK/MAP Kinase signaling (p-ERK) [17]: inhibition
- IC50 [20]: 2000 nM
SMILES: O=C(Nc1cccc(Cl)c1)Nc1nc2ccc([N+](=O)[O-])cc2s1 [C29]
- effect on cisplatin-resistant CAL27 cell viability [2]: equivalent
- ERK/MAP Kinase and PI3K/AKT signaling pathways (p-ERK, p-AKT) [3]: inhibited
- proliferation/survival of uveal melanoma cells (Mel202) ([4]; 2.5 µmol/L): did not affect
- Selectivity index Mel202 ([4]; SI = IC50 in normal cells (15S)/IC50 in Mel202): 1.25
- stability in cellulo (degradation) [5]: No degradation; also recorded: absence of degradation
- hematological, renal or hepatic toxicity ([7]; 100mg/kg by oral gavage five times a week for three weeks): did not induce hematological, renal or hepatic toxicity
- Basophils [7, 21]: 0.07089 ± 0.02 k/µl
- Eosinophils [7, 21]: 0.1760 ± 0.04 k/µl
- Hematocrit [7, 21]: 26.22 ± 2.45%
- Hemoglobin [7, 21]: 14.67 ± 1.22 g/dL
- Leucocytes [7, 21]: 4.239 ± 0.60 k/µl
- Lymphocytes [7, 21]: 2.943 ± 0.38 k/µl
- Mean Corpuscular Volume [7, 21]: 112.0 ± 1.054 fL
- Mean corpuscular hemoglobin [7, 21]: 31.46 ± 0.79 pg
- Mean platelet volume [7, 21]: 12.81 ± 0.08 fL
- Monocytes [7, 21]: 0.2664 ± 0.04 k/µl
- Neutrophils [7, 21]: 0.6760 ± 0.11 k/µl
- Platelets [7, 21]: 375.7 ± 77.93 k/µl
- Red blood cells [7, 21]: 10.33 ± 0.98 M/µl
- effect on cell viability of sunitinib-resistant 786-O cells [8]: conserved
- Selectivity index 786-O ([9]; SI = IC50 in normal cells (15S)/IC50 in 786-O): 6.25
- viability of sensitive 786-O RCC cells compared with sunitinib [9, 22]: as efficiently as sunitinib
- IC50 ([13]; CXCR1+/CXCR2+, read-out: IC50 CAL27): 2500 nM
- IC50 ([13]; XTT assay, 48 h, SD 10%, mean of three experiments, read-out: IC50 27 (HNSCC)): 2500 nM
- Selectivity index CAL27 ([13]; SI = IC50 in normal cells (15S)/IC50 in CAL27): 5
- effect on CAL27 HNSCC cell viability compared with cisplatin [13, 22]: greater than that of cisplatin
- basal and CXCL5/CXCL7-dependent HuVECs viability [15]: inhibited
- IC50 [18]: 5000 nM
- efficacy on tumor growth, 786-O xenograft [19]: as efficient as a dose of 50 mg/kg administered by oral gavage
